The text below walks through data of patent US20040162467A1, “Non-invasive transudate extraction” (priority 2001, published 2004).

Data set [1] in a line: Procalcitonin/TNF alpha and IL 6 (measure of bacterial sepsis): serum versus transdermal. In kind it is in vivo.
The nature of data set [2]: Concentrations in transdermal exudate collected by different formats from sheep, versus serum. As for the experimental part: (§1) Sodium lauryl sulfate (40%) and either a commercial ultrasound conductive gel (Aquasonic, Parker Lab., NJ 07004, USA) or a 10% ethanol gel (the two gels were alternated in use) are employed. These gels are designated SLS-UG and SLS-EG respectively herein. Collected SLS-UG and SLS-EG are assayed as for blood. Saliva was divided into two samples. The first sample is stored at −20° C. and assayed as for blood. The second sample is assayed at the time of experimentation using the apparatus and immunosensors described above.
Ten of these animals were used to develop the transdermal exudate collection technique. These 10 animals were penned as above, and a catheter inserted into the jugular vein using known techniques in the art. A mixture of sodium lauryl sulfate and either SLS-UG or SLS-EG was positioned onto the shaved area on the back of each animal. […] At the end of the hour, the remaining mix on the back was collected. The entire procedure was repeated three times. This mix was subject to assay (see below) for hormones and glucose content.
On the following day, one of the two gel mixes were rubbed on and, after 10 min, ultrasound (20 kHz, 10 W/cm^2, pulsed 5 s on/5 s off using an ITO Physiotherapy and rehabilitation unit, Tokyo 176-8605, Japan) applied for 1 min directly onto the mix. Ten minutes later, the mix was again collected and measured. This was then repeated with 2 min of the ultrasound application, and on a following day, the entire procedure repeated using the alternative gel mix on the shaved patch on the animal. Times greater than 2 min were not attempted due to potential risk of skin damage. Blood samples were collected at the time of ultrasound application and again at the time when the gel mix was also collected. The entire ultrasound procedure was then repeated on subsequent days with the addition of an application of a 9V electric field either side of the ultrasound head (in contact with skin).
On a separate day, in a further repeat of the above procedure; the collecting head (50) was positioned onto the ultrasound device. The ultrasound device was modified to ensure good coupling for use with the collecting head and delivery of needed parameters to the skin. The output of the device was reset to achieve the same energy and pulse delivery to the skin's surface as when the collecting head was not present, and the ultrasound device had been placed directly in contact with the gels (as described above). Three fluid flow rates into the collection chamber of the head were compared: 150, 300 and 600 μl/min. The effluent fluid was then assayed. On a final day, this was then repeated with the immunosensors positioned in the exit line from the chamber, with immunosensor measurement of the hormones made as has been described above.

Data set [3] can be described thus: Serum, transdermal and saliva samples from sheep before, during and after exercise. The settings on record: for Exudate: transdermal; for Saliva: 20-min saliva lag. How it is done: as §1
(§2) Student t tests, ANOVA or Wilcoxon test for paired samples are made as appropriate. Statistical significance is taken at P≦0.05 level. For analysis across the exercise stress, data is grouped into pre, during and post exercise values as actual sample times relative to the exercise for transdermal and blood obtained values. For pre, during and post exercise grouping of saliva samples, a 20-min lag was allowed relative to blood and transdermal values in sheep and a 30-min lag in human subjects.
In the remaining 10 sheep, experimentation took place on three separate days, each 3 days apart. On days of experimentation, animals were penned as above and the jugular vein of the animal was catheterised. Animals were left to rest for 50 min and then a single ultrasound application applied for 1 min as above. […] A series of electrosonophoresis collections were made concurrently with blood collection from the jugular vein, every 5 min for a further 1 h. Saliva samples were collected on every second blood sample (i.e. every 10 min). At completion of this time, a human shepherd, intermittently for 30 min, then ran the animals around a paddock. During this 30 min, each animal was briefly restrained manually and sampled on all three parameters every 10 min (i.e. three samples repeated three times). At the end of this period, animals were repenned and rested for 10 min, and a further saliva collection was made. Following this saliva collection for a further 1-h period, collection as above, prior to exercise, was repeated. In this manner for each animal, in each session, 27 blood and transdermal samples and 16 saliva samples were collected.

Data set [4] can be described thus: Serum, transdermal and saliva samples from human subjects before, during and after exercise. The settings on record: for Exudate: transdermal; for Saliva: 30-min saliva lag. As for the experimental part: as §1, §2
Ten human volunteers (males aged 19-23, body weights 85-103 kg) were seated at 09:30 h. During the experiment, they were held at a room temperature of 20-22° C. An initial 1 min burst of ultrasound, as for the sheep (above), was made on the volar surface of the forearm, following application of SLS-EG mix. Ten minutes later, transdermal (electrosonophoresis) collection began from this site on this forearm, simultaneous to a venepuncture blood collection being made from the other. A saliva collection was then made, followed by a second, third and fourth saliva collection 20, 30 and 40 min after the blood sample. These measurements were repeated three times over 3 h (i.e. a total of three blood and transdermal samples and 12 saliva samples). In between each sampling series, subjects were allowed to walk around, eat lightly and drink water. Following this collection, the five volunteers exercised at moderate intensities, for 40 min (heart rates maintained in the range of 130-160 bpm) on a rowing machine, stopping briefly at 10, 20 and 30 min to give blood, transdermal and saliva samples. The subjects gave another set of samples at 40 min upon completion of rowing, then warmed down lightly with stretching exercises for a further 10 min and gave a further saliva sample at the end of this time. Two more saliva samples were collected at 60 and 70 min after exercise started. At the end of this time, sampling was repeated as above, prior to exercise, for a further 3 h. The entire procedure was repeated twice a week for 3 weeks (a total of six times). The distance rowed (m) represented the total work rate during the exercise.

Data set [5] is described as follows: Other analytes: transdermal collection levels versus serum levels.
The mark [6] stands for this setting: sheep, SLS + 10% E + US 1 min + 9 V.
Setting [7] is: sheep, SLS + 10% E + US 1 min + 9 V + Collection Head.
[8] abbreviates: first group of subjects (no condition given).
[9] abbreviates: second group of subjects (no condition given).
Where [10] appears, read: second group: females pregnant and lactating.

In the case of TNF alpha, in data set [1] (subject number 20), the “TNF alpha Trandermal” value lay within 0.5 to 12 ng/mL and the Transdermal was in the range of 0.03 to 1.4 ng/mL. Further, in data set [1] (subject number 30), the “TNF alpha Trandermal” value is 0.1 to 0.5 ng/mL and the Transdermal lay in the range of 0.005 to 0.01 ng/mL.
As for “Insulin: endogenous hormone analyte measured in serum and exudate”, the Serum in data set [2] (sheep, SLS + 10% E) was 0.18 ± 0.09 ng/mL; in data set [2] (sheep, SLS + 10% E + US 1 min), 0.4 ± 0.15 ng/mL; in data set [2] (setting [6]), 0.21 ± 0.08 ng/mL; in data set [2] (setting [7]) it was 0.19 ± 0.11 ng/mL; in data set [2] (sheep, SLS + UG), 0.2 ± 0.6 ng/mL; in data set [3] (10 min Exercise) it was 2.1e-07 ± 7e-08 mg/L. Moreover, the Serum in data set [3] (20 min Exercise) amounted to 1.2e-07 ± 5e-08 mg/L; in data set [3] (Postexercise) it was 1.9e-07 ± 8e-08 mg/L; in data set [4] (0 min Exercise), 13.1 ± 3.0 μIU/ml; in data set [4] (20 min Exercise), 6.3 ± 3.8 μIU/ml; in data set [4] (30 min Exercise), 5.4 ± 4.1 μIU/ml; in data set [4] (Postexercise), 14.1 ± 5.5 μIU/ml. The Exudate is 0.0004 ± 0.002 ng/mL in data set [2] (sheep, SLS + 10% E + US 1 min); 0.0064 ± 0.0041 ng/mL in data set [2] (setting [6]); 0.013 ± 0.006 ng/mL in data set [2] (setting [7]); 9e-09 ± 3e-09 mg/L in data set [3] (20 min Exercise); 8e-09 ± 4e-09 mg/L in data set [3] (30 min Exercise); 1.4e-08 ± 8e-09 mg/L in data set [3] (Postexercise). The Exudate was 2.9e-08 ± 9e-09 mg/L in data set [3] (Preexercise); 0.90 ± 0.28 μIU/ml in data set [4] (10 min Exercise); 0.46 ± 0.21 μIU/ml in data set [4] (30 min Exercise); 0.57 ± 0.33 μIU/ml in data set [4] (40 min Exercise); 1.15 ± 0.48 μIU/ml in data set [4] (Postexercise); 1.35 ± 0.90 μIU/ml in data set [4] (Preexercise). Moreover, the “Recovery as % of serum levels” value in data set [2] (sheep, gel mix with addition of ultrasound application) is reported as 2%.
In data set [5] (setting [8]), `CCO` [Ethanol, ethanol] yielded a Serum levels of 0.01 to 0.9 mg/mL and a Transdermal collection levels of 0.02 to 0.08 mg/mL. In data set [5] (second group (loading)), the Serum levels was 0.4 to 1.4 mg/mL (loading) and the Transdermal collection levels fell in the range of 0.05 to 0.11 mg/mL.
On to `CC(=O)[C@H]1CC[C@H]2[C@@H]3CCC4=CC(=O)CC[C@]4(C)[C@H]3CC[C@]12C` [Progesterone], for which the values for the Serum levels in data set [5] (setting [8]) and in data set [5] (setting [9]) were 1e-06 to 1.2e-05 mg/mL and 8e-06 to 2.5e-05 mg/mL, respectively. Also, the Transdermal collection levels in data set [5] (setting [8]) was 2e-07 to 1.1e-06 mg/mL; in data set [5] (setting [9]), 5e-07 to 2.8e-06 mg/mL.
As for `CN[C@@H](C)[C@@H](O)c1ccccc1` [Pseudoephedrine, reference compound], in data set [5] (setting [8]), the Serum levels lay within 0.001 to 0.008 mg/mL and the Transdermal collection levels lay in the range of 0.0002 to 0.0008 mg/mL. Also, in data set [5] (setting [10]), the Serum levels is given as 4-25 μg/ml females and the Transdermal collection levels is 0.0004 to 0.0021 mg/mL.
As for IL 6: measure of bacterial sepsis, the Serum in data set [1] (subject number 20) lay in the range of 0.3 to 11.5 ng/mL; in data set [1] (subject number 30), 0.1 to 0.3 ng/mL. The Transdermal was in the range of 0.04 to 1.2 ng/mL in data set [1] (subject number 20) and 0.03 to 0.05 ng/mL in data set [1] (subject number 30).
Regarding `Cn1c(=O)c2c(ncn2C)n(C)c1=O` [Caffeine], in data set [5] (setting [8]), the Serum levels is 1 to 5 mg/mL and the Transdermal collection levels was 0.2 to 0.8 mg/mL. In data set [5] (second group (loading)), the Serum levels is 4 to 14 mg/mL (loading) and the Transdermal collection levels fell in the range of 0.3 to 1.5 mg/mL.
For `C[C@]12CC[C@@H]3c4ccc(O)cc4CC[C@H]3[C@@H]1CC[C@@H]2O` [Estradiol, 17-β estradiol], the “Recovery as % of serum levels” value in data set [2] (in vivo) turned out to be 1%. For the same molecule, the Serum amounted to 1.5 ± 1.1 mg/L in data set [3] (10 min Exercise); 1.3 ± 1.1 mg/L in data set [3] (20 min Exercise); 1.5 ± 1.3 mg/L in data set [3] (30 min Exercise); 2.2 ± 1.1 mg/L in data set [3] (Postexercise); 1.4 ± 1.2 mg/L in data set [3] (Preexercise). Also, the Saliva in data set [3] (10 min Exercise) turned out to be 0.038 ± 0.011 mg/L; in data set [3] (20 min Exercise), 0.046 ± 0.009 mg/L; in data set [3] (30 min Exercise), 0.03 ± 0.012 mg/L; in data set [3] (Postexercise) it was 0.052 ± 0.021 mg/L; in data set [3] (Preexercise) it was 0.05 ± 0.03 mg/L; in data set [4] (0 min Exercise) it was 0.76 ± 0.38 ng/L. For the same molecule, the Saliva in data set [4] (10 min Exercise) was 0.75 ± 0.51 ng/L; in data set [4] (20 min Exercise), 0.83 ± 0.39 ng/L; in data set [4] (30 min Exercise), 0.85 ± 0.22 ng/L; in data set [4] (40 min Exercise), 0.68 ± 0.26 ng/L; in data set [4] (Postexercise), 0.45 ± 0. ng/l; in data set [4] (Preexercise), 0.71 ± 0.25 ng/L. The Exudate worked out at 0.14 ± 0.08 mg/L in data set [3] (10 min Exercise); 0.12 ± 0.07 mg/L in data set [3] (20 min Exercise); 0.14 ± 0.09 mg/L in data set [3] (30 min Exercise); 0.20 ± 0.06 mg/L in data set [3] (Postexercise); 0.12 ± 0.06 mg/L in data set [3] (Preexercise); 1.53 ± 0.59 ng/L in data set [4] (0 min Exercise). The Exudate in data set [4] (10 min Exercise) is 1.47 ± 0.94 ng/L; in data set [4] (20 min Exercise), 1.74 ± 0.54 ng/L; in data set [4] (30 min Exercise), 2.14 ± 0.86 ng/L; in data set [4] (40 min Exercise), 1.53 ± 0.51 ng/L; in data set [4] (Postexercise) it was 1.11 ± 0.55 ng/L; in data set [4] (Preexercise) it was 1.23 ± 0.46 ng/L.

B1: Prolactin: endogenous hormone analyte (protein, UniProt P01236 29-227, looked up)
Prolactin: LPICPGGAARCQVTLRDLFDRAVVLSHYIHNLSSEMFSEFDKRYTHGRGFITKAINSCHTSSLATPEDKEQAQQMNQKDFLSLIVSILRSWNEPLYHLVTEVRGMQEAPEAILSKAVEIEEQTKRLLEGMELIVSQVHPETKENEIYPVWSGLPSLQMADEESRLSAYYNLLHCLRRDSHKIDNYLKLLKCRIIHNNNC
In data set [5] (setting [8]), B1 showed a Serum levels of 1e-06 to 8e-06 mg/mL and a Transdermal collection levels of 2e-08 to 8e-07 mg/mL. In addition, in data set [5] (setting [10]), the Serum levels is 4-100 ng/ml females and the Transdermal collection levels was 4e-07 to 1e-05 mg/mL.
